Columns and labels:
[1] = test system: ERBB and PI3K family members; assay: potency and selectivity against kinase family members (FIG. 1); format: biochemical
[2] = metabolic stability (FIG. 2); format: in vitro ADME
[3] = test system: EGFR and PI3K pathway signaling; assay: cellular EGFR and PI3K pathway signaling (Western blots); format: cell-based; details: FIG. 4
Protocol: Cells or tumors were lysed in NP-40 lysis buffer [25 mmolL Tris-HCl (pH 7.6), 150 mmol/L NaCl, 1% Nonidet P-40, 10% glycerol, 1 mmol/L EDTA, 1 mmol/L dithiothreitol, and protease and phosphatase inhibitors], rocked for 30 minutes at 4° C., and centrifuged at 13,200 rpm for 20 minutes at 4° C. Protein concentration was determined by BioRad Protein Assays and lysates were subsequently subjected to SDS gel electrophoresis. Proteins were transferred to polyvinylidene fluoride (PVDF) membranes and probed with primary antibodies recognizing p-EGFR tyr1068), EGFR, p-HER2 (tyr1248), HER2, p-AKT (ser473), p-AKT (thr308), AKT, pERK1/2 (thr202/tyr204), ERK1/2, pS6K (ser235/236), S6K, and cleaved PARP (all from Cell Signaling Technology) and beta actin (Abcam). After incubation with anti-rabbit HRP-linked secondary antibody (Jackson ImmunoResearch Laboratories, Inc.), proteins were detected using chemiluminescence (GE Healthcare).

[4] = test system: HCT-116 (KRASmt) tumors; assay: single agent activity against HCT-116 tumors; format: in vivo; details: FIG. 5
[5] = test system: RKO (BRAFmt) tumors; assay: single agent activity against RKO tumors; format: in vivo; details: FIG. 5
[6] = tolerability of daily oral dosing; format: in vivo; details: daily oral dosing of 100 mg/kg, FIG. 6
Protocol: (§1) For the xenograft studies established from the patient-derived xenograft (PDX) models (UM CRC 14-929 and UM CRC 15-1269), female 6- to 7-week-old NCR nude mice (CrTac:NCr-Foxnlnu from Taconic) were implanted subcutaneously with low-passage PDX tumor fragments (30 mg) into the region of the right axilla. For the xenograft studies established from cell lines (CT-26), cells were injected (1×10^6 cells per injection) into the flanks of female 6- to 7-week old NCR nude mice. In both cases, the mice were randomized into treatment groups and treatments initiated when tumors reached 100 to 200 mg. […] Subcutaneous tumor volume and body weights were measured two to three times a week. Tumor volumes were calculated by measuring two perpendicular diameters with calipers and using the formula: tumor volume ¼ (length x width^2)/2. Percent treated/control (% TC) was calculated by dividing the median treated tumor weight by the median control tumor weight and multiplying by 100 on the last day of treatment. […] Increase in lifespan was calculated by dividing the median increase in lifespan (days) by the median survival time of the vehicle control group. […]

[7] = test system: xenograft; assay: in vivo efficacy in combination with MEK inhibitors (FIG. 22); set-up: species or system mice
Protocol: as §1

CS(=O)(=O)Nc1cc(-c2ccc3ncnc(Nc4ccc(F)c(Cl)c4)c3c2)cnc1Cl [MTX-211]
potency and selectivity against ERBB and PI3K family members [1]: potent and highly selective
metabolic stability [2]: favorable metabolic stability
modulation of cellular EGFR and PI3K pathway signaling [3]: modulates cellular EGFR and PI3K pathway signaling
activity against HCT-116 (KRASmt) tumors [4]: single agent activity
activity against RKO (BRAFmt) tumors [5]: single agent activity
tolerability [6]: well tolerated
in vivo efficacy when combined with MEK inhibitors [7]: in vivo potentiation of MTX-211 efficacy

Source: patent US20200078360A1, “SMALL MOLECULE DUAL INHIBITORS OF EGFR/PI3K AND USES THEREOF” (The Regents of the University of Michigan, priority 2016, published 2020)
